Data published in US20160137746A1, “METHODS FOR TREATING HIGH CARDIOVASCULAR RISK PATIENTS WITH HYPERCHOLESTEROLEMIA” (Sanofi Biotechnology, priority 2014, published 2016).
“And” between values parts separate entries of the source, which are not always exact repeats. Equal values may be shown once.

What was measured:
[1] = test system: high cardiovascular risk patients with hypercholesterolemia; experiment: ODYSSEY LONG TERM: lipid efficacy of alirocumab 150 mg Q2W vs placebo; assay type: in vivo, human; settings: intention-to-treat, Week 78 (final analysis)
[2] = test system: high cardiovascular risk patients with hypercholesterolemia; experiment: ODYSSEY COMBO II: lipid efficacy of alirocumab vs ezetimibe, add-on to maximally tolerated statin; assay type: in vivo, human; settings: for Calculated LDL-C percent change from baseline, LS mean (SE): ITT population, MMRM, alirocumab 75 Q2W/Up150 Q2W, ezetimibe 10
Text: Each of the COMBO studies was randomized, double-blinded, and placebo-controlled.
The primary efficacy endpoint for each study was the difference between treatment arms in the percent change in LDL-C from baseline to Week 24.
Apo, apolipoprotein; HDL-C, high-density lipoprotein cholesterol; ITT, intent-to-treat; LDL-C, low-density lipoprotein cholesterol; Lp(a), lipoprotein (a); TG, triglycerides.
COMBO II was a Phase 3, randomized, double-blind, active-controlled, parallel-group, multinational 104-week study. The study enrolled high-risk patients with uncontrolled hypercholesterolemia on stable, maximally tolerated daily statin therapy. Unlike COMBO I, with a placebo arm, COMBO II incorporated an active-treatment arm (ezetimibe) with double-dummy design (FIG. 1B) and patients were not allowed to receive any other lipid lowering therapies besides statin and their randomized treatment.
After randomization, patients entered a double-blind, double-dummy treatment period of 104 weeks.
Primary analyses of efficacy endpoints were conducted using an ITT approach (based on the ITT population defined above), including all lipid data, regardless of whether the patient was continuing therapy or not. This corresponds to ITT estimands, defined for primary and key secondary endpoints. In addition, analyses were also conducted using an on-treatment approach (based on the mITT population defined above), including lipid data collected during the efficacy treatment period. This corresponds to on-treatment estimands of key secondary endpoints.
With regards to the primary efficacy analysis (ITT approach), the percent change in calculated LDL-C from baseline to Week 24 was analyzed using a mixed-effect model with repeated measures (MMRM) approach.

[3] = test system: high cardiovascular risk patients with hypercholesterolemia; experiment: ODYSSEY COMBO II: safety (TEAEs, adjudicated CV events, laboratory parameters, low LDL-C); settings: alirocumab patients with two consecutive LDL-C ≦25 mg/dL (n = 105); number (%) of patients
Procedure: Safety assessments during both studies were as follows. Safety was assessed through adverse event (AE) reporting (including adjudicated cardiovascular events), laboratory analyses, and vital signs measurement. Since the LDL-C-lowering effects of PCSK9 inhibition on top of a statin are unknown, a number of AEs were defined as being of special interest and were monitored, including alanine aminotransferase abnormalities, allergic events, hemolytic anemia, pregnancy, overdose with study drug, neurologic events, ophthalmic events, and local injection site reactions.
Safety Analyses were as follows. AEs (including adjudicated cardiovascular events), laboratory parameters, and vital signs were reported descriptively, based on the safety population (all randomized patients who received at least 1 dose or partial dose of study treatment). The safety analysis focused on the treatment-emergent AE period defined as the time from the first double-blind dose to the last double-blind dose of the investigational product +70 days (10 weeks).
The safety population included all randomized patients who received at least one dose or part of a dose of the double-blind IMP.
Safety analyses were descriptive, performed on the safety population according to treatment actually received. For analysis of TEAE and PCSA, the safety analysis focused on the TEAE period defined as the time from the first dose of double-blind IMP administration (capsule or injection, whichever comes first) up to 70 days after the last double-blind injection.

[4] = ITT, Week 24, listed as alirocumab

**Q.** How did the “Percent decrease in LDL cholesterol” value [1] turn out when “Alirocumab: human anti-PCSK9 antibody; HCVR SEQ ID NO:1, LCVR SEQ ID NO:6; CDRs SEQ ID NOs 2/3/4/7/8/10” was run?
**A.** 52%

**Q.** What about the “Achieved LDL-C, median” value ([2]; 24 weeks, FIG. 7) of the same substance?
**A.** 40 mg/dL

**Q.** And the “Patients with automatic up-titration at Week 12 from 75 mg Q2W to 150 mg Q2W (Week 8 LDL-C ≧70 mg/dL)” value ([2]; 82 of 446 patients with at least one injection after Week 12)?
**A.** 18.4% and 18%

**Q.** And the “Calculated LDL-C percent change, LS mean difference (SE) vs ezetimibe” value ([2]; ITT, Week 24)?
**A.** −29.8 (2.3) %

**Q.** What about the “Calculated LDL-C, LS mean (SE) percent change from baseline” value ([2]; ITT, Week 24) of the same substance?
**A.** −50.6 (1.4) %

**Q.** And the “Fasting TGs, LS mean percent change from baseline” value ([2]; ITT, Week 24)?
**A.** −13.0%

**Q.** And the “Calculated LDL-C percent change, LS mean difference (SE) vs ezetimibe” value [2, 4]?
**A.** −29.8%

**Q.** And the “Calculated LDL-C, LS mean (SE) percent change from baseline” value [2, 4]?
**A.** −50.6%

**Q.** And the “Fasting TGs percent change, LS mean difference vs ezetimibe” value ([2]; ITT, Week 24, p=0.9117)?
**A.** −0.3%

**Q.** What about the “Calculated LDL-C, LS mean percent change from baseline” value ([2]; ITT, Week 52, listed as alirocumab) of the same substance?
**A.** −49.5% and −50%

**Q.** And the “Apolipoprotein A-1, LS mean difference vs. ezetimibe” value ([2]; ITT, time point not given)?
**A.** vs. ezetimibe of 6.3%

**Q.** And the “Apolipoprotein A-1, LS mean vs. baseline” value ([2]; ITT, time point not given)?
**A.** vs. baseline of +5.0

**Q.** What about the “Calculated LDL-C percent change, LS mean difference vs ezetimibe” value ([2]; On-treatment, Week 24) of the same substance?
**A.** −30.6%

**Q.** And the “Calculated LDL-C percent change from baseline, LS mean (SE)” value ([2]; Week 4)?
**A.** −54.7 (1.1) %

**Q.** What about the “Calculated LDL-C percent change from baseline, LS mean (SE)” value ([2]; Week 8) of the same substance?
**A.** −54.3 (1.2) %

**Q.** What about the “Apo-B - Percent change from baseline to Week 12, LS mean difference vs. ezetimibe” value ([2]; Week 12, ITT) of the same substance?
**A.** vs. ezetimibe of −22.5%

**Q.** What about the “Apo-B - Percent change from baseline to Week 12, LS mean vs. baseline” value ([2]; Week 12, ITT) of the same substance?
**A.** vs. baseline of −39.7

**Q.** And the “Calculated LDL-C - Percent change from baseline to Week 12, LS mean difference vs. ezetimibe” value ([2]; Week 12, ITT)?
**A.** vs. ezetimibe of −29.4%

**Q.** And the “Non-HDL-C - Percent change from baseline to Week 12, LS mean difference vs. ezetimibe” value ([2]; Week 12, ITT)?
**A.** vs. ezetimibe of −22%

**Q.** What about the “Non-HDL-C - Percent change from baseline to Week 12, LS mean vs. baseline” value ([2]; Week 12, ITT) of the same substance?
**A.** vs. baseline of −42.6

**Q.** What about the “Total-C - Percent change from baseline to Week 12, LS mean difference vs. ezetimibe” value ([2]; Week 12, ITT) of the same substance?
**A.** vs. ezetimibe of −14.3%

**Q.** And the “Total-C - Percent change from baseline to Week 12, LS mean vs. baseline” value ([2]; Week 12, ITT)?
**A.** vs. baseline of −29.4

**Q.** What about the “Calculated LDL-C - Percent change from baseline to Week 12, LS mean difference vs. ezetimibe” value ([2]; Week 12, On-treatment analysis) of the same substance?
**A.** vs. ezetimibe of −29.7%

**Q.** What about the “Calculated LDL-C percent change from baseline, LS mean (SE)” value ([2]; Week 16) of the same substance?
**A.** −56.4 (1.3) %

**Q.** What about the “Apo B reduction compared with ezetimibe” value ([2]; Week 24) of the same substance?
**A.** 22.4%

**Q.** What about the “Fasting TGs reduced from baseline” value ([2]; Week 24) of the same substance?
**A.** 13.5%

**Q.** And the “HDL-C increase compared with ezetimibe” value ([2]; Week 24)?
**A.** 8.1%

**Q.** What about the “Lp(a) reduction compared with ezetimibe” value ([2]; Week 24) of the same substance?
**A.** 21.7%

**Q.** What about the “Mean achieved LDL-C” value ([2]; Week 24) of the same substance?
**A.** 51.6 (1.4) mg/dL

**Q.** And the “Non-HDL-C reduction compared with ezetimibe” value ([2]; Week 24)?
**A.** 22.9%

**Q.** And the “Apo-B - Percent change from baseline to Week 24, LS mean vs. baseline” value ([2]; Week 24, ITT)?
**A.** vs. baseline of −40.7

**Q.** What about the “HDL-C - Percent change from baseline to Week 24, LS mean difference vs. ezetimibe” value ([2]; Week 24, ITT) of the same substance?
**A.** vs. ezetimibe of 8.1%

**Q.** And the “HDL-C - Percent change from baseline to Week 24, LS mean vs. baseline” value ([2]; Week 24, ITT)?
**A.** vs. baseline of- +8.6

**Q.** And the “Lp(a) - Percent change from baseline to Week 24, combined estimate for adjusted mean difference vs. ezetimibe” value ([2]; Week 24, ITT)?
**A.** ezetimibe of −21.7%

**Q.** What about the “Lp(a) - Percent change from baseline to Week 24, mean vs. baseline” value ([2]; Week 24, ITT) of the same substance?
**A.** vs. baseline of −27.8

**Q.** And the “Non-HDL-C - Percent change from baseline to Week 24, LS mean difference vs. ezetimibe” value ([2]; Week 24, ITT)?
**A.** vs. ezetimibe of−22.9%

**Q.** What about the “Non-HDL-C - Percent change from baseline to Week 24, LS mean vs. baseline” value ([2]; Week 24, ITT) of the same substance?
**A.** vs. baseline of −42.1

**Q.** What about the “Total-C - Percent change from baseline to Week 24, LS mean difference vs. ezetimibe” value ([2]; Week 24, ITT) of the same substance?
**A.** vs. ezetimibe of −14.7%

**Q.** And the “Calculated LDL-C percent change from baseline, LS mean (SE)” value ([2]; Week 24)?
**A.** −50.6 (1.4) %

**Q.** And the “Fasting TGs - Percent change from baseline to Week 24, combined estimate for adjusted mean difference vs. ezetimibe” value ([2]; Week 24, ITT, not statistically significant (p 0.9117))?
**A.** ezetimibe of −0.3%

**Q.** What about the “HDL-C percent change from baseline to week 24” value ([2]; Week 24, on-treatment analysis) of the same substance?
**A.** 9.0 (0.8)

**Q.** What about the “HDL-C percent change from baseline to week 24, LS mean difference (SE) alirocumab vs ezetimibe” value ([2]; Week 24, on-treatment analysis) of the same substance?
**A.** 8.2 (1.4) %

**Q.** What about the “Lipoprotein(a) percent change from baseline to week 24” value ([2]; Week 24, on-treatment analysis) of the same substance?
**A.** −28.1 (1.4)

**Q.** And the “Lipoprotein(a) percent change from baseline to week 24, LS mean difference (SE) alirocumab vs ezetimibe” value ([2]; Week 24, on-treatment analysis)?
**A.** −22.5 (2.4) %

**Q.** And the “Total cholesterol percent change from baseline to week 24” value ([2]; Week 24, on-treatment analysis)?
**A.** −30.4 (0.9)

**Q.** And the “Total cholesterol percent change from baseline to week 24, LS mean difference (SE) alirocumab vs ezetimibe” value ([2]; Week 24, on-treatment analysis)?
**A.** −15.1 (1.5) %

**Q.** And the “Triglycerides (fasted) percent change from baseline to week 24” value ([2]; Week 24, on-treatment analysis)?
**A.** −13.5 (1.4)

**Q.** What about the “Triglycerides (fasted) percent change from baseline to week 24, LS mean difference (SE) alirocumab vs ezetimibe” value ([2]; Week 24, on-treatment analysis) of the same substance?
**A.** −0.2 (2.5) %

**Q.** And the “Calculated LDL-C percent change from baseline, LS mean (SE)” value ([2]; Week 36)?
**A.** −51.2 (1.4) %

**Q.** And the “Calculated LDL-C - Percent change from baseline to Week 52, LS mean difference vs. ezetimibe” value ([2]; Week 52, ITT)?
**A.** vs. ezetimibe of −31.2%

**Q.** What about the “Absolute reduction in LDL-C” value ([2]; by week 24, dose-increased group) of the same substance?
**A.** 63.5 mg/dL

**Q.** What about the “Absolute reduction in LDL-C” value ([2]; by week 24, remainder of the alirocumab group) of the same substance?
**A.** 56.9 mg/dL

**Q.** And the “Patients who did not require uptitration to alirocumab 150 mg Q2W” value ([2]; in vivo)?
**A.** approximately 80%

**Q.** And the “Additional LDL-C reduction after dose increase at 12 weeks” value ([2]; patients with dose increased to 150 mg SC Q2W)?
**A.** 12.4%

**Q.** What about the “Laboratory parameters: Blood glucose increased” value [3] of the same substance?
**A.** 1 (1.0)

**Q.** And the “Laboratory parameters: Hemoglobin decreased” value [3]?
**A.** 3 (2.9)

**Q.** What about the “Patients experiencing any TEAE” value [3] of the same substance?
**A.** 72 (68.6)

**Q.** What about the “TEAE preferred term: Accidental overdose” value [3] of the same substance?
**A.** 6 (5.7)

**Q.** And the “TEAE preferred term: Angina pectoris” value [3]?
**A.** 2 (1.9)

**Q.** And the “TEAE preferred term: Arthralgia” value [3]?
**A.** 5 (4.8)

**Q.** What about the “TEAE preferred term: Dizziness” value [3] of the same substance?
**A.** 5 (4.8)

**Q.** What about the “TEAE preferred term: Headache” value [3] of the same substance?
**A.** 4 (3.8)

**Q.** What about the “TEAE preferred term: Hypertension” value [3] of the same substance?
**A.** 3 (2.9)

**Q.** And the “TEAE preferred term: Influenza” value [3]?
**A.** 3 (2.9)

**Q.** And the “TEAE preferred term: Myalgia” value [3]?
**A.** 4 (3.8)

**Q.** And the “TEAE preferred term: Nasopharyngitis” value [3]?
**A.** 10 (9.5)

**Q.** What about the “TEAE preferred term: Upper respiratory tract infection” value [3] of the same substance?
**A.** 4 (3.8)
